This is an account of results in US11046682B2, “Fused heterocyclic derivatives, their preparation methods thereof and medical uses thereof” (Beijing Innocare Pharma Tech Co., Ltd., priority 2016, dated 2021).

For assay [1], the target named is full-length human recombinant IDO1 protein (Homo sapiens (Human), UniProt P14902). In words: IDO enzyme activity inhibition testing (Ehrlich method). The conditions noted are these: OD490, 10 concentration points. It is filed as biochemical. As to the method: IDO Enzyme Activity Inhibition Testing
Sequence of full-length human recombinant IDO1 protein (P14902 whole entry): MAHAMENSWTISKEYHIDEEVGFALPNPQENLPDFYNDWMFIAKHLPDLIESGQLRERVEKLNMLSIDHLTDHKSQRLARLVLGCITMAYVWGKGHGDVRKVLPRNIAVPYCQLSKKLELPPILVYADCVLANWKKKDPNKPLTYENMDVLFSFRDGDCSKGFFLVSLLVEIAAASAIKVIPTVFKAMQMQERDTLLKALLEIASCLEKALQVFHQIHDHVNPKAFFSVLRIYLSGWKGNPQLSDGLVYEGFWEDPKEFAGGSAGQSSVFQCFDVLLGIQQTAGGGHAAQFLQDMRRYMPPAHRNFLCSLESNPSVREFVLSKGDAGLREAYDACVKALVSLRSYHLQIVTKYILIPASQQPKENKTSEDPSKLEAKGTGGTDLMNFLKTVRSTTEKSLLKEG
The effects of the compounds of the invention on the activity of indoleamine 2,3-dioxygenase (IDO) were evaluated by the Ehrlich method.
The experimental principle is summarized as follows: IDO1 catalyzes oxidation of tryptophan to form N-formyl kynurenine, N-formyl kynurenine is subsequently hydrolyzed by trichloroacetic acid to form kynurenine, and kynurenine further reacts with the Ehrlich reagent to make the solution yellow. The absorbance at 490 nm (OD490) is directly proportional to the activity of IDO1.
The experimental methods are summarized as follows:
The reaction buffer was 50 mM 2-(N-morpholine)ethanesulfonic acid-hydrate (Sigma, Cat. No. 69889); the full-length human recombinant IDO1 protein was purchased from the Tsinghua Protein Research Technology Center and diluted to a 33.6 ng/μL enzyme solution with the reaction buffer; the substrate solution was prepared with the reaction buffer containing 20 mM vitamin C (Sigma, Cat. No. A5960), 150 μM L-tryptophan (Sigma, Cat. No. T0254), 2250 UI/mL catalase (Sigma, Cat. No. C30), and 10 μM methylene blue (Sigma, Cat. No. 28514); the reaction termination solution was 30% (mass/volume) trichloroacetic acid (Sigma, Cat. No. T9159) aqueous solution; the Ehrlich reagent was 2% p-dimethylaminobenzaldehyde (Sigma, Cat. No. 156477) acetic acid (Macklin, Cat. No. A801295) solution.
A compound was dissolved in DMSO (Sigma, Cat. No. D5879) and diluted to 1 mM, then serially diluted 3-fold with DMSO to a minimum concentration of 50.8 nM, and each concentration was further diluted 25-fold with the reaction buffer. If a compound's IC50 value was very low, the initial concentration of the compound was decreased.
A 10-μL compound solution and a 10-μL enzyme solution were added to a 96-well plate (Sigma, Cat. No. CLS3695), mixed well and incubated at room temperature. After 15 min, a 20-μL substrate solution was added and incubated at 60° C. after mixing for 30 min. The reaction plate was equilibrated to room temperature and 60 μL of the Ehrlich reagent was added. After incubation for 15 min, OD490 of each well was measured.
In this experiment, OD490 without enzyme was referred as OD490100% inhibition, and OD490 with enzyme added but without compound was referred as OD4900% inhibition.
(§1) Where Y is the percentage of inhibition, Bottom is the bottom platform value of the S-curve, Top is the top platform value of the S-curve, X is the logarithm of the concentration of the test compound, and slope factor is the slope coefficient of the curve.

Assay [2] concerns the target indoleamine 2,3-dioxygenase (IDO) in Hela cells (Homo sapiens (Human), UniProt P14902). Kind of assay: IDO intracellular activity inhibition testing in Hela cells induced by IFN-γ (Ehrlich method). It is filed as cell-based. To be noted: 24 hours, OD490, 8 concentration points. As to the method:
IDO Intracellular Activity Inhibition Testing
The effects of the compounds of the invention on the activity of indoleamine 2,3-dioxygenase (IDO) in Hela cells induced by IFN-γ were evaluated by the Ehrlich method.
The experimental principle is summarized as follows: IDO expression is low in Hela cells under no induction, but a certain concentration of IFN-γ can induces Hela cells to express IDO which catalyzes the conversion of tryptophan to N-formyl kynurenine, which in turn is hydrolyzed by trichloroacetic acid to give kynurenine. Kynurenine then reacts with the Ehrlich reagent to give a color enabling detection of the IDO activity. The absorbance at 490 nm (OD490) is directly proportional to the IDO activity.
A compound was dissolved in DMSO (Sigma, Cat. No. D5879) and diluted to 5 mM, then serially diluted 3-fold with DMSO to a minimum concentration of 2.29 μM, and each concentration point was diluted 50-fold with FBS-free DMEM medium (ThermoFisher, Cat. No. 11995073). If a compound's IC50 value is very low, the initial concentration of the compound was lowered.
Hela cells (ATCC, Cat. No. CCL-2) were cultured in DMEM complete medium containing 10% FBS (GBICO, Cat. No. 10099-141) and 100 U/mL streptomycin mixture (ThermoFisher, Cat. No. 15140122). When covering the culture vessel 80-90%, the cells were digested with 0.25% trypsin (containing EDTA) (ThermoFisher, Cat. No. 25200056) and planted in 96-well plates (Corning, Cat. No. 3599), 20000 cells per well (80 μL of DMEM medium). The plates were then incubated in a 37° C., 5% CO2 incubator overnight (18-20 hours).
After overnight, 10 μL of DMEM-diluted compound and 10 μL of 500 ng/mL of INF-γ were added to each well, and gently mixed and the 96-well plates were placed in a 37° C., 5% CO2 incubator for further culturing. After 24 hours, they were removed and centrifuged at room temperature 2000×g for 5 min, and then the supernatants were transferred to reaction plates (Sigma, Cat. No. CLS3695). One-twentieth of trichloroacetic acid (Sigma, Cat. No. T9159) was added and incubated at 60° C. After 30 min, the reaction plates were centrifuged at room temperature 2000×g for 5 min. The supernatants were transferred to clean reaction plates, an equal volume of the Ehrlich reagent was added, mixed, and incubated at room temperature. After 15 min, OD490 of each well was measured.
In this experiment, OD490 without IFN-γ but with DMEM medium replacement was referred as OD490100% inhibition. OD490 with IFN-γ and 0.2% DMSO was referred as OD4900% inhibition. The percentage of inhibition on the IDO1 activity in Hela cells by a compound was calculated using the following formula: Inhibition %=100−100*(OD490compound−OD490100% inhibition)/(OD4900% inhibition−OD490100% inhibition)
as §1

Sequence of indoleamine 2,3-dioxygenase (IDO) in Hela cells (P14902 whole entry): as above

What is called IC50 is the concentration that inhibits the measured activity by half. In the case of `N#Cc1ccc(NC(=O)Cc2cc(Cl)cc3[nH]ncc23)cc1` [Compound 63, 2-(6-chloro-1H-indazol-4-yl)-N-(4-cyanophenyl)acetamide], in assay [1], the IC50 lay within 0.25 to 1.5 µM.

Compound `N#CC1CCC(NC(=O)Nc2c(-c3ccccc3)ccc3cncn23)CC1` (stereo not shown) [Compound 36, 1-(4-cyanocyclohexyl)-3-(6-phenylimidazo[1,5-a]pyridin-5-yl)urea] had an IC50 in assay [2] of less than 1 µM. Regarding `COc1cc(NC(=O)Nc2c(-c3ccccc3)ccc3cncn23)ccc1C#N` [Compound 34, 1-(4-cyano-3-methoxyphenyl)-3-(6-phenylimidazo[1,5-a]pyridin-5-yl)urea], in assay [1], the IC50 is less than 0.25 µM. Same read-out and setting: under `N#Cc1ccc(NC(=O)Cc2c(-c3ccccc3)ccc3cncn23)c(CO)c1` [Compound 40, N-(4-cyano-2-(hydroxymethyl)phenyl)-2-(6-phenylimidazo[1,5-a]pyridin-5-yl)acetamide] stands 0.25 to 1.5 µM; under `c1ccc(CNCc2c(-c3ccccc3)ccc3cncn23)cc1` [Compound 58, N-benzyl-1-(6-phenylimidazo[1,5-a]pyridin-5-yl)methanamine], 0.25 to 1.5 µM.

In the case of `CN(Cc1ccc(C#N)cc1)Cc1c(-c2ccccc2)ccc2cncn12` [Compound 55, 4-((methyl((6-phenylimidazo[1,5-a]pyridin-5-yl)methyl)amino)methyl)benzonitrile], the IC50 in assay [1] is 0.25 to 1.5 µM. For `COC1CCN(C(=O)c2ccc(NC(=O)Cc3c(-c4ccccc4)ccc4cncn34)cc2)CC1` [Compound 48, N-(4-(4-methoxypiperidine-1-carbonyl)phenyl)-2-(6-phenylimidazo[1,5-a]pyridin-5-yl)acetamide], the IC50 in assay [1] was less than 0.25 µM. Same read-out and setting: under `CC(C)(O)CNCc1c(-c2ccccc2)ccc2cncn12` [Compound 62, 2-methyl-1-(((6-phenylimidazo[1,5-a]pyridin-5-yl)methyl)amino)propan-2-ol] stands less than 0.25 µM; under `N#Cc1ccc(NC(=O)Nc2c(F)ccc3cncn23)cc1` [Compound 14, 1-(4-cyanophenyl)-3-(6-fluoroimidazo[1,5-a]pyridin-5-yl)urea], less than 0.25 µM. With `N#Cc1ccc(NC(=O)Cc2cc(Cl)cc3cncn23)cc1` [Compound 41, 2-(7-chloroimidazo[1,5-a]pyridin-5-yl)-N-(4-cyanophenyl)acetamide], the IC50 in assay [1] is less than 0.25 µM. Still for that read-out and setting: under `N#Cc1ccc(NC(=O)Nc2cc(Cl)cc3cncn23)cc1` [Compound 20, 1-(7-chloroimidazo[1,5-a]pyridin-5-yl)-3-(4-cyanophenyl)urea] stands less than 0.25 µM. Same read-out and setting: under `CC(C)CNCc1c(-c2ccccc2)ccc2cncn12` [Compound 61, 2-methyl-N-((6-phenylimidazo[1,5-a]pyridin-5-yl)methyl)propan-1-amine] stands 0.25 to 1.5 µM; under `N#Cc1ccc(NC(=O)Nc2c(-c3ccccc3)ccc3cncn23)nc1` [Compound 33, 1-(5-cyanopyridin-2-yl)-3-(6-phenylimidazo[1,5-a]pyridin-5-yl)urea], 0.25 to 1.5 µM; under `COc1ccc2cncn2c1NC(=O)Nc1ccc(C#N)cc1` [Compound 15, 1-(4-cyanophenyl)-3-(6-methoxyimidazo[1,5-a]pyridin-5-yl)urea], 0.25 to 1.5 µM. Take `COCCn1cc(-c2ccc(NC(=O)Cc3c(-c4ccccc4)ccc4cncn34)cc2)cn1` [Compound 52, N-(4-(1-(2-methoxyethyl)-1H-pyrazol-4-yl)phenyl)-2-(6-phenylimidazo[1,5-a]pyridin-5-yl)acetamide]: the IC50 in assay [1] is less than 0.25 µM. With `O=C(Nc1ccc(C(=O)NCCO)cc1)Nc1c(-c2ccccc2)ccc2cncn12` [Compound 30, N-(2-hydroxyethyl)-4-(3-(6-phenylimidazo[1,5-a]pyridin-5-yl)ureido)benzamide], in assay [1], the IC50 lay within 0.25 to 1.5 µM. On to `O=C(Nc1ccc(Cl)cc1)Nc1cccc2cncn12` [Compound 3, 1-(4-chlorophenyl)-3-(imidazo[1,5-a]pyridin-5-yl)urea], for which, in assay [1], the IC50 lay within 0.25 to 1.5 µM.

Consider `N#Cc1ccc(NC(=O)Nc2cccc3cncn23)cc1` [Compound 1, 1-(4-cyanophenyl)-3-(imidazo[1,5-a]pyridin-5-yl)urea], for which, in assay [1], the IC50 was 0.25 to 1.5 µM. Same read-out and setting: under `O=C(Cc1c(-c2ccccc2)ccc2cncn12)Nc1ccc(C(=O)N2CCOCC2)cc1` [Compound 47, N-(4-(morpholine-4-carbonyl)phenyl)-2-(6-phenylimidazo[1,5-a]pyridin-5-yl)acetamide] stands less than 0.25 µM; under `N#Cc1ccc(N(O)C(=O)Cc2c(-c3ccccc3)ccc3cncn23)cc1` [Compound 45, N-(4-cyanophenyl)-N-hydroxy-2-(6-phenylimidazo[1,5-a]pyridin-5-yl)acetamide], less than 0.25 µM. Still for that read-out and setting: under `COc1cc(C#N)ccc1NC(=O)Nc1c(-c2ccccc2)ccc2cncn12` [Compound 35, 1-(4-cyano-2-methoxyphenyl)-3-(6-phenylimidazo[1,5-a]pyridin-5-yl)urea] stands less than 0.25 µM.

Regarding `N#Cc1ccc(CNCc2c(-c3ccccc3)ccc3cncn23)cc1` [Compound 42, 4-((((6-phenylimidazo[1,5-a]pyridin-5-yl)methyl)amino)methyl)benzonitrile], in assay [1], the IC50 is less than 0.25 µM. As for `NC(=O)c1ccc(NC(=O)Nc2c(-c3ccccc3)ccc3cncn23)cc1` [Compound 29, 4-(3-(6-phenylimidazo[1,5-a]pyridin-5-yl)ureido)benzamide], the IC50 in assay [1] lay within 0.25 to 1.5 µM. For the compound `c1ccc(-c2ccc3cncn3c2CNCC2CCCCC2)cc1` [Compound 59, 1-cyclohexyl-N-((6-phenylimidazo[1,5-a]pyridin-5-yl)methyl)methanamine], the IC50 in assay [1] was in the range of 0.25 to 1.5 µM.

Turning to `CNC(=O)c1ccc(NC(=O)Nc2c(-c3ccccc3)ccc3cncn23)cc1` [Compound 28, N-methyl-4-(3-(6-phenylimidazo[1,5-a]pyridin-5-yl)ureido)benzamide], in assay [1], the IC50 fell in the range of 0.25 to 1.5 µM.

Take `O=C(Nc1ccc(C(=O)O)cc1)Nc1c(-c2ccccc2)ccc2cncn12` [Compound 27, 4-(3-(6-phenylimidazo[1,5-a]pyridin-5-yl)ureido)benzoic acid]: in assay [1], the IC50 was in the range of 0.25 to 1.5 µM.

In the case of `CCOc1ccc2cncn2c1NC(=O)Nc1ccc(C#N)cc1` [Compound 16, 1-(4-cyanophenyl)-3-(6-ethoxyimidazo[1,5-a]pyridin-5-yl)urea], in assay [1], the IC50 was in the range of 0.25 to 1.5 µM. The same measure, in the same setting: to `N#Cc1ccc(NC(=O)Nc2c(-c3ccccc3)ccc3cncn23)cn1` [Compound 32, 1-(6-cyanopyridin-3-yl)-3-(6-phenylimidazo[1,5-a]pyridin-5-yl)urea] belongs less than 0.25 µM.
